Experimental data published in US20100120763A1, “IMIDAZO[5,1-C][1,2,4]BENZOTRIAZINE DERIVATIVES AS INHIBITORS OF PHOSPHODIESTERASES” (priority 2008, published 2010).
Read-outs that look alike come from different tables or passages of the source.

How the values were obtained:
PDE10A = target: T1, PDE10A (Homo sapiens, UniProt Q9Y233); test: Inhibition of recombinant PDE10A (baculovirus/SF21 system), [3H]-cAMP SPA; assay type: biochemical; settings: recombinant PDE10A1, cytosolic; 0.1 μM [3H]-cAMP, 37° C., 30 minutes; read-out: PDE10A IC50
T1 construct: made in house; host or cells: SF21 insect cells (baculovirus)
T1 sequence (Q9Y233 1-779 isoform Q9Y233-1): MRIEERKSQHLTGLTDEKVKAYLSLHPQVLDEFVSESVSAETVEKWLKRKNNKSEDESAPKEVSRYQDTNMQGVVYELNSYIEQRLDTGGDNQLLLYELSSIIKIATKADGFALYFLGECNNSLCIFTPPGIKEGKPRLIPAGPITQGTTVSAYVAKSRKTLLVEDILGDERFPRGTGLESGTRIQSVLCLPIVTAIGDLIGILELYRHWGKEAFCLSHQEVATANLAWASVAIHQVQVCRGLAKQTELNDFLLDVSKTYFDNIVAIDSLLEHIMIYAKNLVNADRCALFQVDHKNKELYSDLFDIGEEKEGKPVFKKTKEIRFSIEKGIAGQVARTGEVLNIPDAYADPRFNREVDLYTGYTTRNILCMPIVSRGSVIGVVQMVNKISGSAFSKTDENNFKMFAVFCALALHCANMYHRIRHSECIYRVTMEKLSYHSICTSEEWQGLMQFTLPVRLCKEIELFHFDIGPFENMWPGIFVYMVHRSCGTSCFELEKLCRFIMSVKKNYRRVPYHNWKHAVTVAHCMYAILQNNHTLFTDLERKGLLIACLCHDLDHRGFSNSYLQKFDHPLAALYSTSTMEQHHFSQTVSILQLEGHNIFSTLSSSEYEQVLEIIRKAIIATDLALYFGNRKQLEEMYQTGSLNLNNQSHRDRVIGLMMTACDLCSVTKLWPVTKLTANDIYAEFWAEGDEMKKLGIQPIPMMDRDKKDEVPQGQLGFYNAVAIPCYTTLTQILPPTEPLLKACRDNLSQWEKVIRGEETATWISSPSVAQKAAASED
Description: Inhibition of Recombinant PDE10A (Baculovirus/SF21 System)
The gene was than inserted into a baculovirus vector, ligated with the baculovirus DNA. The enzyme-protein was expressed in SF21-cells. The enzyme was isolated from these cells by harvesting the cells by an centrifugation at 500 g to collect the cells.
The cells were resuspended in 50 mM Tris-HCl/1 mM EDTA/250 mM Sucrose buffer, pH=7.4 (Sigma, Deisenhofen, Germany; Merck, Darmstadt, Germany) and lysed by sonification of the cells (three times for 15 seconds, Labsonic U, Fa. Braun, Degersheim, Switzerland, level “high”). The cytosolic PDE10A was obtained by a centrifugation at 48,000 g for 1 h in the supernatant and stored at −70° C.
PDE activity was determined in a one step procedure in microtiter plates. The reaction mixture of 100 μl contained 50 mM Tris-HCl/5 mM MgCl2 buffer (pH=7.4, Sigma, Deisenhofen, Germany; Merck, Darmstadt, Germany) 0.1 μM [3H]-cAMP (Amersham, Buckinghamshire, UK) and the enzyme. Non-specific enzyme activity was determined without the enzyme. The reaction was initiated by addition of the substrate solution and was carried out at 37° C. for 30 minutes. Enzymatic activity then was stopped by addition of 25 μl Ysi-SPA-beads (Amersham-Pharmacia). One hour later the mixture was measured in a liquid scintillation counter for microtiter plates (Microbeta Trilux). The Biomek 2000 (Beckman) was used routinely for pipetting of the incubation mixture. […] For determination of IC50 values the Hill-plot, 2-parameter-model, was used.

PDE2A = target: T2, PDE2A (Homo sapiens, UniProt O00408); test: Inhibition of recombinant PDE2A (expressed in baculovirus/SF21-cells), [3H]-cAMP SPA; assay type: biochemical
T2 construct: made in house; host or cells: SF21 insect cells (baculovirus)
T2 sequence (O00408 whole entry): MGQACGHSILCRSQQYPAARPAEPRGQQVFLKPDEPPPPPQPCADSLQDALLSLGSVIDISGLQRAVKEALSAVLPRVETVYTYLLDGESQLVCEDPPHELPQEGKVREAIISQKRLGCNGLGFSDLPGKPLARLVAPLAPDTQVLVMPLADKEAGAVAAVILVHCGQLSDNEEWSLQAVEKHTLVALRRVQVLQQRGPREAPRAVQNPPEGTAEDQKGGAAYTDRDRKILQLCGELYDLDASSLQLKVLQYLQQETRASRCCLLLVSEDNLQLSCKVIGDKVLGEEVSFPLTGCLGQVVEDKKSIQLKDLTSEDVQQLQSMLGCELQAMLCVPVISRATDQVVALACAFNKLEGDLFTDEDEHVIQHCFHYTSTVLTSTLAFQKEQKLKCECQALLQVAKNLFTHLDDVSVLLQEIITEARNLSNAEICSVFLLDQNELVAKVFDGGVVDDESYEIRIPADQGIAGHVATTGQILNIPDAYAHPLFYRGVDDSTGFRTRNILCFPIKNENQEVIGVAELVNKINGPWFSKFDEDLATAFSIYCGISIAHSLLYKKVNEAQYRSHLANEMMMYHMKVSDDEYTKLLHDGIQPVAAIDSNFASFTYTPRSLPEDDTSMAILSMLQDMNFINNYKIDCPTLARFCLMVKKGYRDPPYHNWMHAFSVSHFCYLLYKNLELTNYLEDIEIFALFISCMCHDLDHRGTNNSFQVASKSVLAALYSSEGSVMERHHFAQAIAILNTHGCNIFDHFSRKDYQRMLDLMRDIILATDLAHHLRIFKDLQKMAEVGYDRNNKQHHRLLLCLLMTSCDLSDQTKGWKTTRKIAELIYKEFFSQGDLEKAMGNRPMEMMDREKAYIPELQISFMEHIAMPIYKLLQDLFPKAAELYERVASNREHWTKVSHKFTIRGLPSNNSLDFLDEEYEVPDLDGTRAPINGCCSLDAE
Description: Inhibition of Recombinant PDE2A (Expressed in Baculovirus/SF21-Cells)
PDE2A (NM002599) was cloned and the gene was inserted in the baculovirus and the enzyme-protein expressed in SF21-cells. The enzyme was isolated from these cells by harvesting the cells by an centrifugation at 200 g to collect the cells. The cells were resuspended in 50 mM Tris-HCl/5 mM MgCl2 buffer (pH=7.4) (Sigma, Deisenhofen, Germany; Merck, Darmstadt, Germany) and lysed by a sonication of the cells (three times for 15 seconds, Labsonic U, Fa. Braun, Degersheim, Switzerland, level “high”). The membrane fraction of PDE2A was obtained by a centrifugation at 48 000 g for 1 h, resuspended in buffer and stored at −70° C.
PDE2A activity was determined in a one step procedure in microtiterplates. The reaction mixture of 100 μl contained 50 mM Tris-HCl/5 mM MgCl2 buffer (pH=7.4) (Sigma, Deisenhofen, Germany; Merck, Darmstadt, Germany), 0.5 μM [3H]-cAMP (Amersham, Buckinghamshire, UK), 1000 nM cGMP and the enzyme. Non-specific enzyme activity was tested in the absence of cGMP. The reaction was initiated by addition of the substrate solution and was carried out at 37° C. for 30 minutes. Enzymatic activity then was stopped by addition of 25 μl SPA-beads (Amersham-Pharmacia). One hour later the mixture was measured in a liquid scintillation counter for microtiterplates (Microbeta Trilux). For pipetting of the incubation mixture the robot Biomek (Fa. Beckman) was routinely used.
For determination of IC50 values the Hill-plot, 2-parameter-model, was used.

| Molecule | IC50 (PDE10A) [nM] | IC50 (PDE2A) [nM] | IC50 (PDE2A; recombinant PDE2A, membrane fraction, 0.5 μM [3H]-cAMP, 1000 nM cGMP, 37° C., 30 minutes, read-out: PDE2A IC50) [nM] |
| --- | --- | --- | --- |
| COc1cc(F)c2nnc3c(C)nc(-c4cc(C(N)=O)ccc4F)n3c2c1 [Example 98, 4-fluoro-3-(6-fluoro-8-methoxy-3-methylimidazo[5,1-c][1,2,4]benzotriazin-1-yl)benzamide] | 15.4 | 45 |  |
| Cc1cn(-c2ccc3nnc4c(C)nc(C5CCCCC5)n4c3c2)c(C2CCCCC2)n1 [Example 179, 1-Cyclohexyl-8-(2-cyclohexyl-4-methyl-imidazol-1-yl)-3-methyl-imidazo[5,1-c][1,2,4]benzotriazine] | 322 | 242 |  |
| 8-fluoro-1-isobutyl-3-methylbenzo[e]imidazo[5,1-c][1,2,4]triazine [Example 9] | 156 |  | 302 |
| COc1cc(F)c2nnc3c(C)nc(-c4cc(F)ccc4C)n3c2c1 [Example 73, 6-fluoro-1-(5-fluoro-2-methylphenyl)-8-methoxy-3-methylimidazo[5,1-c][1,2,4]benzotriazine] | 18.9 | 15.1 |  |
| COc1cc(F)cc2c1nnc1c(C)nc(-c3cccnc3)n12 [Example 109, 8-fluoro-6-methoxy-3-methyl-1-pyridin-3-ylimidazo[5,1-c][1,2,4]benzotriazine] | 102 | > 5000 |  |
| COc1cc(F)c2nnc3c(C)nc(-c4cc(C)ccc4F)n3c2c1 [Example 75, 6-fluoro-1-(2-fluoro-5-methylphenyl)-8-methoxy-3-methylimidazo[5,1-c][1,2,4]benzotriazine] | 15 | 13.9 |  |
| COc1cc(F)c2nnc3c(C)nc(-c4cnccc4C)n3c2c1 [Example 97, 6-fluoro-8-methoxy-3-methyl-1-(4-methylpyridin-3-yl)imidazo[5,1-c][1,2,4]benzotriazine] | 146 | 146 |  |
| COc1cc(F)cc2c1nnc1c(C)nc(-c3c(C)noc3C)n12 [Example 115, 1-(3,5-dimethylisoxazol-4-yl)-8-fluoro-6-methoxy-3-methylimidazo[5,1-c][1,2,4]benzotriazine] | 67 | > 10000 |  |
| COc1cc(F)cc2c1nnc1c(C)nc(-c3ccc(F)nc3C)n12 [Example 120, 8-fluoro-1-(6-fluoro-2-methylpyridin-3-yl)-6-methoxy-3-methylimidazo[5,1-c][1,2,4]benzotriazine] | 53.6 | > 10000 |  |
| COc1cc(F)cc2c1nnc1c(C)nc(-c3cc(C(F)(F)F)ccc3Cl)n12 [Example 101, 1-[2-chloro-5-(trifluoromethyl)phenyl]-8-fluoro-6-methoxy-3-methylimidazo[5,1-c][1,2,4]benzotriazine] | 43 | 258 |  |
| Cc1nc(-c2cc(Cl)ccc2Cl)n2c1nnc1ccc(N3CCOCC3)cc12 [Example 181, 1-(2,5-Dichloro-phenyl)-3-methyl-8-morpholin-4-yl-imidazo[5,1-c][1,2,4]benzotriazine] | 24.3 | 2.3 |  |
| COc1cc(F)c2nnc3c(C)nc(-c4ccncc4)n3c2c1 [Example 87, 6-fluoro-8-methoxy-3-methyl-1-pyridin-4-ylimidazo[5,1-c][1,2,4]benzotriazine] | 246 | 1250 |  |
| COc1cc(F)c2nnc3c(C)nc(-c4cc(Cl)ccc4OC)n3c2c1 [Example 68, 1-(5-chloro-2-methoxyphenyl)-6-fluoro-8-methoxy-3-methylimidazo[5,1-c][1,2,4]benzotriazine] | 64.2 | 109 |  |

These reach a lower IC50 (PDE10A). Values come first.

| IC50 (PDE10A) [nM] | IC50 (PDE2A) [nM] | Molecule | IC50 (PDE2A; recombinant PDE2A, membrane fraction, 0.5 μM [3H]-cAMP, 1000 nM cGMP, 37° C., 30 minutes, read-out: PDE2A IC50) [nM] |
| --- | --- | --- | --- |
| 11.7 | 3420 | COc1cc(F)cc2c1nnc1c(C)nc(-c3sc(C)nc3C)n12 [Example 127, 1-(2,4-dimethyl-1,3-thiazol-5-yl)-8-fluoro-6-methoxy-3-methylimidazo[5,1-c][1,2,4]benzotriazine] |  |
| 8.52 | 609 | COc1cc(F)cc2c1nnc1c(C)nc(-c3ccc(F)cc3C)n12 [Example 110, 8-fluoro-1-(4-fluoro-2-methylphenyl)-6-methoxy-3-methylimidazo[5,1-c][1,2,4]benzotriazine] |  |
| 8.33 | 3390 | COc1cc(F)c2nnc3c(C)nc(-c4ccccc4OC)n3c2c1 [Example 86, 6-fluoro-8-methoxy-1-(2-methoxyphenyl)-3-methylimidazo[5,1-c][1,2,4]benzotriazine] |  |
| 7.77 | 14.4 | COc1cc(F)c2nnc3c(C)nc(-c4cc(C)ccc4Cl)n3c2c1 [Example 72, 1-(2-chloro-5-methylphenyl)-6-fluoro-8-methoxy-3-methylimidazo[5,1-c][1,2,4]benzotriazine] |  |
| 7.09 | 9.43 | COc1cc(F)c2nnc3c(C)nc(-c4cc(F)ccc4Cl)n3c2c1 [Example 80, 1-(2-chloro-5-fluorophenyl)-6-fluoro-8-methoxy-3-methylimidazo[5,1-c][1,2,4]benzotriazine] |  |
| 5.32 | 277 | COc1cc(OCc2ccccc2)cc2c1nnc1c(C)nc(-c3cnccc3C)n12 [Example 157, 8-(benzyloxy)-6-methoxy-3-methyl-1-(4-methylpyridin-3-yl)imidazo[5,1-c][1,2,4]benzotriazine] |  |
| 4.72 | 435 | COc1cc(F)cc2c1nnc1c(C)nc(-c3cc(F)ccc3C)n12 [Example 103, 8-fluoro-1-(5-fluoro-2-methylphenyl)-6-methoxy-3-methylimidazo[5,1-c][1,2,4]benzotriazine] |  |
| 4.16 | 775 | COc1cc(OC)c2nnc3c(C)nc(-c4cnccc4C)n3c2c1 [Example 45, 6,8-dimethoxy-3-methyl-1-(4-methylpyridin-3-yl)imidazo[5,1-c][1,2,4]benzotriazine] |  |
| 3.55 | 1150 | COc1cc(F)cc2c1nnc1c(C)nc(-c3cccc(F)c3C)n12 [Example 117, 8-fluoro-1-(3-fluoro-2-methylphenyl)-6-methoxy-3-methylimidazo[5,1-c][1,2,4]benzotriazine] |  |
| 3.05 | 105 | COc1cc(O)cc2c1nnc1c(C)nc(-c3ccncc3C)n12 [Example 152, 6-methoxy-3-methyl-1-(3-methylpyridin-4-yl)benzo[e]imidazo[5,1-c][1,2,4]triazin-8-ol] |  |
| 2.98 | 62.5 | COc1cc(F)cc2c1nnc1c(C)nc(-c3cc(C)ccc3Cl)n12 [Example 107, 1-(2-chloro-5-methylphenyl)-8-fluoro-6-methoxy-3-methylimidazo[5,1-c][1,2,4]benzotriazine] |  |
| 1.92 | 70.4 | COc1cc(N2CCOCC2)cc2c1nnc1c(C)nc(-c3cccnc3C)n12 [Example 64, 6-methoxy-3-methyl-1-(2-methylpyridin-3-yl)-8-morpholin-4-ylimidazo[5,1-c][1,2,4]benzotriazine] |  |
| 1.64 | 269 | COc1cc(F)cc2c1nnc1c(C)nc(-c3sccc3C)n12 [Example 119, 8-fluoro-6-methoxy-3-methyl-1-(3-methylthiophen-2-yl)imidazo[5,1-c][1,2,4]benzotriazine] |  |
| 1.48 | 196 | COc1cc(OC)c2nnc3c(C)nc(-c4cccnc4C)n3c2c1 [Example 48, 6,8-dimethoxy-3-methyl-1-(2-methylpyridin-3-yl)imidazo[5,1-c][1,2,4]benzotriazine] |  |
| 1.48 | 346 | COc1cc(C(F)(F)F)cc2c1nnc1c(C)nc(-c3ccncc3C)n12 [Example 134, 6-methoxy-3-methyl-1-(3-methylpyridin-4-yl)-8-(trifluoromethyl)benzo[e]imidazo[5,1-c][1,2,4]triazine] |  |
| 0.67 | 73.9 | COc1cc(OCc2ccccc2)cc2c1nnc1c(C)nc(-c3cccnc3C)n12 [Example 154, 8-(benzyloxy)-6-methoxy-3-methyl-1-(2-methylpyridin-3-yl)imidazo[5,1-c][1,2,4]benzotriazine] |  |
